Legend:
[1] = Liquid; for viscosity: Falling or rolling sphere viscometry; for mass density: Vibrating tube method
[2] = cn = amount concentration of the nth substance listed, in mol/dm3; conditions: 101.3 kPa, Liquid, Falling or rolling sphere viscometry, c2 = 0

NCCO [2-aminoethan-1-ol]
[1], 101.33 kPa
Conditions	mass density [kg/m3]	viscosity [mPa·s]
303.15 K	1007.7	14.61
313.15 K	999.8	9.724
323.15 K	991.7	6.807
333.15 K	983.7	4.97
343.15 K	975.5	3.784

O [water]
[1], 101.3 kPa
Conditions	viscosity [mPa·s]
293.15 K	1.002
298.15 K	0.8908
303.15 K	0.799
308.15 K	0.722
313.15 K	0.6564
318.15 K	0.6009

O [water] + NCCCC[C@H](N)C(=O)[O-].[K+]
[2]
Conditions	viscosity [mPa·s]
298.15 K	0.8908
303.15 K	0.799
308.15 K	0.722
313.15 K	0.6564
318.15 K	0.6009

O [water] + O=C([O-])[C@@H]1CCCN1.[K+]
[2]
Conditions	viscosity [mPa·s]
298.15 K	0.8908
303.15 K	0.799
308.15 K	0.722
313.15 K	0.6564
318.15 K	0.6009

Source: the NIST ThermoML archive (doi:10.1016/j.fluid.2015.04.021)
